Data set [1] is described as follows: Liver microsomal stability, dog. The following applies: pH 7.4; dog liver microsomes, 0.5 mg/mL protein, 1 μM compound, NADPH; >80% remaining at 45 min denoted >140; read-out: Liver Microsomal Stability: t1/2 (min); dog. Type of data set: in vitro ADME. Summed up:
(§1)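 Pooled liver microsomes (0.5 mg/mL protein) in 0.1 M phosphate pH 7.4 with 1 μM compound (0.25% DMSO), started with 1 mM NADPH at 37° C; sampled 0-45 min, minus-NADPH control 45 min. LC-MS/MS depletion slope gave t1/2 and CLint.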
On the technique in general: Liver microsomes are a subcellular fraction often used to study metabolism.

Data set [2] can be described thus: Liver microsomal stability, human. Type of data set: in vitro ADME. The following applies: pH 7.4; human liver microsomes, 0.5 mg/mL protein, 1 μM compound, NADPH; >80% remaining at 45 min denoted >140; read-out: Liver Microsomal Stability: t1/2 (min); human. Summed up:
as §1

Another data set relates to RSV A2. Kind of data set: RSV plaque reduction assay. Type of data set: cell-based, respiratory syncytial virus (RSV). The following applies: human respiratory syncytial virus, HepG2; Hep-G2 cells, RSV A2, mean of at least two experiments. Summed up:
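RSV A2 (100 PFU/well) premixed with eight serial compound dilutions, added to confluent Hep-G2 monolayers for 2 h at 37° C, then held 2 days under CMC overlay containing compound (DMEM, 2% FBS). Plaques immunostained (HRP/TrueBlue) and counted; EC50 is 50% reduction versus virus control from 4-parameter fit, mean of ≥2 experiments.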

A short description of data set [3]: Liver microsomal stability, rat. Type of data set: in vitro ADME. The following applies: pH 7.4; rat liver microsomes, 0.5 mg/mL protein, 1 μM compound, NADPH; >80% remaining at 45 min denoted >140; read-out: Liver Microsomal Stability: t1/2 (min); rat. In short, it runs like this:
as §1

A further data set in a line: Cell cytotoxicity CC50. The following applies: human; mean of at least two experiments. It is filed as cell-based.

Data on two compounds can be found in patent US20220409629A1, “BENZODIAZEPINE DERIVATIVES FOR TREATING A RESPIRATORY SYNCYTIAL VIRUS (RSV) INFECTION” (priority 2019, published 2022).

pEC50: −log10 of the molar value.

One may read the pEC50 as −log10 of the EC50, conventionally taken in molar units. Low values mean a large EC50, high ones a small EC50. The CC50 is the concentration that lowers cell viability or growth by half. `CCOc1nn(CC)c(-c2ccccc2F)c1C(=O)N[C@H]1N=C(c2ccccc2)c2cccc(F)c2NC1=O` [Example 55, 3-Ethoxy-1-ethyl-N-[(3S)-9-fluoro-2-oxo-5-phenyl-1,3-dihydro-1,4-benzodiazepin-3-yl]-5-(2-fluorophenyl)pyrazole-4-carboxamide]: the half-life in data set [1] stood at 39 min; in data set [2], 41.3 min; in data set [3], 26.5 min. This compound also showed a pEC50 in the data set with RSV A2 of 7.48. Also, the CC50 in “Cell cytotoxicity CC50” is greater than 25000 nM.

`CN1CCC(n2ncc(C(=O)N[C@H]3N=C(c4ccccc4)c4cccc(F)c4NC3=O)c2-c2ccc(NC3CC3)nc2F)CC1` [Example 57, 5-[6-(Cyclopropylamino)-2-fluoropyridin-3-yl]-N-[(3S)-9-fluoro-2-oxo-5-phenyl-1,3-dihydro-1,4-benzodiazepin-3-yl]-1-(1-methylpiperidin-4-yl)pyrazole-4-carboxamide]: the half-life is 175 min in data set [1], 84.7 min in data set [2] and 116 min in data set [3]. Further, the pEC50 in the data set on RSV A2 was 7.08. For the same compound, the CC50 in the data set “Cell cytotoxicity CC50” is greater than 9410 nM.
